# Assays:
# P2X2R N202A = test system: P2X2R N202A; design: method as in PMID 10940304; key: n.f.: non-functional mutants; ↑: mutant with significant increased EC50 in comparison to WT (values represent fold increase); ≈: close to WT receptor; D: affected time-constant of the desensitizing current response; conditions: cited from earlier work
# P2X3R S275A = test system: P2X3R S275A; design: method as in PMID 21879712; key: n.f.: non-functional mutants; ↑: mutant with significant increased EC50 in comparison to WT (values represent fold increase); ≈: close to WT receptor; D: affected time-constant of the desensitizing current response; conditions: cited from earlier work
# P2X2R N288A = test system: P2X2R N288A; design: method as in PMID 10940304; conditions: cited from earlier work
# P2X3R T196A = test system: P2X3R T196A; design: method as in PMID 16226373; key: n.f.: non-functional mutants; ↑: mutant with significant increased EC50 in comparison to WT (values represent fold increase); ≈: close to WT receptor; D: affected time-constant of the desensitizing current response; conditions: cited from earlier work
# rP2X4R N204A mutant = molecular target: T1, rP2X4R N204A mutant (Rattus norvegicus, UniProt P51577, N204A); assay type: cell-based
# T1 construct: expressed in transfected cells; host or cells: HEK293T
# T1 sequence (P51577 whole entry N204A): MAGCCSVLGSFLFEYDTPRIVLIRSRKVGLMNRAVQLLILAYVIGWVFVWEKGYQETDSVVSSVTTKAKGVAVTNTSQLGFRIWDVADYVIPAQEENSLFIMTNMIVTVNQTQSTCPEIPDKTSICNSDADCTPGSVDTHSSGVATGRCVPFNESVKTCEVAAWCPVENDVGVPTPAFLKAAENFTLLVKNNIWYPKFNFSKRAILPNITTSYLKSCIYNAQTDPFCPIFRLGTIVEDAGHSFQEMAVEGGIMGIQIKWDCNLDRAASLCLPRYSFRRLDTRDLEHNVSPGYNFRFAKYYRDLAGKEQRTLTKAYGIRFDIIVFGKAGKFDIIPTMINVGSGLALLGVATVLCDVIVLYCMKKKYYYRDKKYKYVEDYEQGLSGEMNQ
# Method: To express the recombinant channels, we used human embryonic kidney (HEK) 293T cells (American Type Culture Collection, Rockville, MD, USA) grown in Dulbecco modified Eagle’s medium (Thermo Fisher Scientific, Waltham, MA) supplemented with 10% fetal bovine serum (Sigma-Aldrich, St Louis, MO), 50 U/ml penicillin and 50 µg/ml streptomycin (both Thermo Fisher Scientific, Waltham, MA) in a humidified 5% CO2 and 95% air at 37°C. Cells were cultured in 75 cm^2 plastic culture flasks (NUNC, Rochester, NY) for 36–72 hours until reaching 80–95% confluence. Before the day of transfection, the cells were plated on 35 mm culture dishes (Sarstedt, Newton, NC) and incubated at 37°C for at least 24 h. […] Transfected cells were identified by the fluorescence signal of EGFP using the Olympus IX71 inverted research microscope with fluorescence illuminators (Model IX71; Olympus, Melville, NY). […]
# ATP-induced currents were recorded from whole cells clamped to −60 mV using an Axopatch 200B patch-clamp amplifier (Axon Instruments, Union City, CA). […] Potency of ATP was measured based on the activation of naïve (not previously stimulated) receptors using a short (2–5 s) application of various concentrations of ATP. […] One or two responses were recorded from one cell, if not otherwise stated, and responses from different cells were pooled. […]
# P2X4R N287A = test system: P2X4R N287A; design: method as in PMID 17663752, PMID 15632318; key: n.f.: non-functional mutants; ↑: mutant with significant increased EC50 in comparison to WT (values represent fold increase); ≈: close to WT receptor; D: affected time-constant of the desensitizing current response; conditions: cited from earlier work
# P2X1R P287C = test system: P2X1R P287C; design: method as in PMID 17428985; key: n.f.: non-functional mutants; ↑: mutant with significant increased EC50 in comparison to WT (values represent fold increase); ≈: close to WT receptor; D: affected time-constant of the desensitizing current response; conditions: cited from earlier work
# P2X1R N290A = test system: P2X1R N290A; design: method as in PMID 16371009; conditions: cited from earlier work
# P2X3R E197A = test system: P2X3R E197A; design: method as in PMID 15475563; key: n.f.: non-functional mutants; ↑: mutant with significant increased EC50 in comparison to WT (values represent fold increase); ≈: close to WT receptor; D: affected time-constant of the desensitizing current response; conditions: cited from earlier work
# rP2X4R R203A mutant = molecular target: T2, rP2X4R R203A mutant (Rattus norvegicus, UniProt P51577, R203A); test: whole-cell patch clamp, HEK293T cells expressing mutant; assay type: cell-based
# T2 construct: expressed in transfected cells; host or cells: HEK293T
# T2 sequence (P51577 whole entry R203A): as the sequence (P51577 whole entry N204A) above, with R203A, A204N counted along it
# rP2X4R N293A mutant = molecular target: T3, rP2X4R N293A mutant (Rattus norvegicus, UniProt P51577, N293A); test: as above; assay type: cell-based
# T3 construct: expressed in transfected cells; host or cells: HEK293T
# T3 sequence (P51577 whole entry N293A): as the sequence (P51577 whole entry N204A) above, with A204N, N293A counted along it
# [1] = decay after removal of 1 or 3 µM ATP, 3 µM IVM
smiles,measurement,setting,value
Nc1ncnc2c1ncn2[C@@H]1O[C@H](COP(=O)(O)OP(=O)(O)OP(=O)(O)O)[C@@H](O)[C@H]1O [ATP],change in EC50 for ATP,P2X2R N202A,N202A: n.f.[6]
same,change in desensitization,P2X3R S275A,S275A: D[55]
same,fold increase of EC50 for ATP in comparison to WT,P2X2R N288A,N288A: ↑>100x[6]
same,change in EC50 for ATP,P2X3R T196A,T196A: ≈[54]
same,Imax+IVM,rP2X4R N204A mutant; ATP after 3 µM IVM 4-6 min,2.5 ± 0.4 nA
same,τoff +IVM,rP2X4R N204A mutant; [1],5.2 ± 0.6 s
same,change in EC50 for ATP,P2X4R N287A,"N287A: ≈[10], [52]"
same,change in EC50 for ATP,P2X1R P287C,P287C: ≈[9]
same,fold increase of EC50 for ATP in comparison to WT,P2X1R N290A,N290A: ↑>50x[45]
same,change in desensitization,P2X3R E197A,E197A: D[53]
same,Imax+IVM,rP2X4R R203A mutant; ATP after 3 µM IVM 4-6 min,2.9 ± 0.6 nA
same,τoff +IVM,rP2X4R R203A mutant; [1],4.6 ± 0.3 s
same,Imax+IVM,rP2X4R N293A mutant; ATP after 3 µM IVM 4-6 min,2.0 ±0.5 nA
same,τoff +IVM,rP2X4R N293A mutant; [1],2.8 ± 0.2 s

# Source: publication PMC4232510, “Identification of Functionally Important Residues of the Rat P2X4 Receptor by Alanine Scanning Mutagenesis of the Dorsal Fin and Left Flipper Domains” (PLoS ONE, 2014)
